The values below come from publication PMC12239253 (BMC Complementary Medicine and Therapies, 2025).

For this test, the target named is glycoprotein B (gB) (Human alphaherpesvirus 1 strain 17, UniProt P10211). Nature of the test: surface plasmon resonance. The class given is binding. For orientation: SPR reads the build-up and loss of mass on a sensor chip optically.

One may read the Kd as the constant that tells how readily two partners part at equilibrium.

SMILES strings stand for the structures.

`C=C1CC/C=C(\C)CC[C@@H]2[C@@H]1CC2(C)C` [BCP, β-caryophyllene]: the Kd was determined as 4.26 µM.
